Results taken from PubChem BioAssay (NCI).
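Method: 48-hour compound exposure of cells in 96-well plates, five concentrations, linear interpolation of endpoints. GI50 = concentration required for 50% inhibition of growth. TGI: concentration producing complete growth inhibition.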

What was measured:
Experiment in all cases: DTP human tumour cell line panel, 48 h
MCF7 breast = test system: MCF7 breast
HOP-62 NSCLC = test system: HOP-62 NSCLC
SW-620 colon = test system: SW-620 colon
LOX IMVI melanoma = test system: LOX IMVI melanoma
DU-145 prostate = test system: DU-145 prostate
UO-31 renal = test system: UO-31 renal
SNB-75 CNS = test system: SNB-75 CNS
786-0 renal = test system: 786-0 renal
NCI/ADR-RES ovarian = test system: NCI/ADR-RES ovarian
UACC-62 melanoma = test system: UACC-62 melanoma
SF-295 CNS = test system: SF-295 CNS
HT29 colon = test system: HT29 colon
SK-MEL-28 melanoma = test system: SK-MEL-28 melanoma
HCT-15 colon = test system: HCT-15 colon
A549 NSCLC = test system: A549 NSCLC
SK-MEL-2 melanoma = test system: SK-MEL-2 melanoma
RXF 393 renal = test system: RXF 393 renal
NCI-H226 lung = test system: NCI-H226 lung
T-47D breast = test system: T-47D breast
KM12 colon = test system: KM12 colon
SF-268 CNS = test system: SF-268 CNS
SNB-19 CNS = test system: SNB-19 CNS
CCRF-CEM leukemia = test system: CCRF-CEM leukemia
HCC-2998 colon = test system: HCC-2998 colon
OVCAR-3 ovarian = test system: OVCAR-3 ovarian
COLO 205 colon = test system: COLO 205 colon
OVCAR-5 ovarian = test system: OVCAR-5 ovarian
HOP-92 NSCLC = test system: HOP-92 NSCLC
TK-10 renal = test system: TK-10 renal
MDA-MB-435 = test system: MDA-MB-435
EKVX NSCLC = test system: EKVX NSCLC
RPMI-8226 leukemia = test system: RPMI-8226 leukemia
U251 CNS = test system: U251 CNS
CAKI-1 renal = test system: CAKI-1 renal
NCI-H522 lung = test system: NCI-H522 lung
PC-3 prostate = test system: PC-3 prostate
BT-549 breast = test system: BT-549 breast
SN12C renal = test system: SN12C renal
MOLT-4 leukemia = test system: MOLT-4 leukemia
SK-MEL-5 melanoma = test system: SK-MEL-5 melanoma
K-562 leukemia = test system: K-562 leukemia
OVCAR-4 ovarian = test system: OVCAR-4 ovarian
HCT-116 colon = test system: HCT-116 colon
NCI-H460 lung = test system: NCI-H460 lung
HS 578T breast = test system: HS 578T breast
SR leukemia = test system: SR leukemia
UACC-257 melanoma = test system: UACC-257 melanoma
ACHN renal = test system: ACHN renal
SK-OV-3 ovarian = test system: SK-OV-3 ovarian
OVCAR-8 ovarian = test system: OVCAR-8 ovarian
NCI-H23 lung = test system: NCI-H23 lung
HL-60(TB) leukemia = test system: HL-60(TB) leukemia
M14 melanoma = test system: M14 melanoma
MDA-MB-231 breast = test system: MDA-MB-231 breast
IGROV1 ovarian = test system: IGROV1 ovarian
SF-539 CNS = test system: SF-539 CNS
A498 renal = test system: A498 renal
MALME-3M melanoma = test system: MALME-3M melanoma

## CCCCCCc1cc2cc(-c3cn4c(n3)sc3ccccc34)c(=O)oc2cc1O
MCF7 breast
  TGI: > 100 µM
HOP-62 NSCLC
  TGI: > 100 µM
SW-620 colon
  TGI: > 100 µM
LOX IMVI melanoma
  TGI: > 100 µM
DU-145 prostate
  TGI: > 100 µM
UO-31 renal
  TGI: > 100 µM
SNB-75 CNS
  TGI: > 100 µM
786-0 renal
  TGI: > 100 µM
NCI/ADR-RES ovarian
  TGI: > 100 µM
UACC-62 melanoma
  TGI: 5.58 µM
SF-295 CNS
  TGI: > 100 µM
HT29 colon
  TGI: > 100 µM
SK-MEL-28 melanoma
  TGI: > 100 µM
HCT-15 colon
  TGI: > 100 µM
A549 NSCLC
  TGI: > 100 µM
SK-MEL-2 melanoma
  TGI: > 100 µM
RXF 393 renal
  TGI: > 100 µM
NCI-H226 lung
  TGI: > 100 µM
T-47D breast
  TGI: > 100 µM
KM12 colon
  TGI: > 100 µM
SF-268 CNS
  TGI: > 100 µM
SNB-19 CNS
  TGI: > 100 µM
CCRF-CEM leukemia
  TGI: > 100 µM
HCC-2998 colon
  TGI: > 100 µM
OVCAR-3 ovarian
  TGI: > 100 µM
COLO 205 colon
  TGI: > 100 µM
OVCAR-5 ovarian
  TGI: > 100 µM
HOP-92 NSCLC
  TGI: > 100 µM
TK-10 renal
  TGI: > 100 µM
MDA-MB-435
  TGI: > 100 µM
EKVX NSCLC
  TGI: > 100 µM
RPMI-8226 leukemia
  TGI: > 100 µM
U251 CNS
  TGI: > 100 µM
CAKI-1 renal
  TGI: > 100 µM
NCI-H522 lung
  TGI: > 100 µM
PC-3 prostate
  TGI: > 100 µM
BT-549 breast
  TGI: > 100 µM
SN12C renal
  TGI: > 100 µM
MOLT-4 leukemia
  TGI: > 100 µM
SK-MEL-5 melanoma
  TGI: > 100 µM
K-562 leukemia
  TGI: > 100 µM
OVCAR-4 ovarian
  TGI: > 100 µM
HCT-116 colon
  TGI: > 100 µM
NCI-H460 lung
  TGI: > 100 µM
HS 578T breast
  TGI: > 72.1 µM
SR leukemia
  TGI: > 100 µM
UACC-257 melanoma
  TGI: > 100 µM
ACHN renal
  TGI: > 100 µM
SK-OV-3 ovarian
  TGI: > 100 µM
OVCAR-8 ovarian
  TGI: > 100 µM
NCI-H23 lung
  TGI: > 100 µM
HL-60(TB) leukemia
  TGI: > 100 µM
M14 melanoma
  TGI: > 100 µM
MDA-MB-231 breast
  TGI: > 100 µM
IGROV1 ovarian
  TGI: > 100 µM
SF-539 CNS
  TGI: > 100 µM

## CN(C)CC1C(=O)O[C@H]2[C@H]1CC/C(COC(=O)NCc1ccc(Cn3c(=O)sn(CCCI)c3=O)cc1)=C\CC[C@@]1(C)O[C@@H]21 (some centres undefined)
HOP-62 NSCLC
  GI50: 4.23 µM
  TGI: 12.7 µM
SW-620 colon
  GI50: 0.998 µM
  TGI: 2.09 µM
LOX IMVI melanoma
  GI50: 0.913 µM
  TGI: 1.69 µM
DU-145 prostate
  GI50: 1.07 µM
  TGI: 2.16 µM
UO-31 renal
  GI50: 0.775 µM
  TGI: 1.52 µM
SNB-75 CNS
  GI50: 2.73 µM
  TGI: 9.51 µM
786-0 renal
  GI50: 1.1 µM
  TGI: 2.43 µM
NCI/ADR-RES ovarian
  GI50: 10.2 µM
  TGI: 30.1 µM
UACC-62 melanoma
  GI50: 1.28 µM
  TGI: 3.97 µM
SF-295 CNS
  GI50: 7.43 µM
  TGI: 14.5 µM
HT29 colon
  GI50: 0.945 µM
  TGI: 1.84 µM
A498 renal
  GI50: 7.02 µM
  TGI: 13.6 µM
SK-MEL-28 melanoma
  GI50: 0.92 µM
  TGI: 1.82 µM
HCT-15 colon
  GI50: 0.965 µM
  TGI: 2.13 µM
A549 NSCLC
  GI50: 7.17 µM
  TGI: 14.4 µM
SK-MEL-2 melanoma
  GI50: 6.31 µM
  TGI: 13.8 µM
RXF 393 renal
  GI50: 0.889 µM
  TGI: 1.71 µM
NCI-H226 lung
  GI50: 7.32 µM
  TGI: 17.6 µM
KM12 colon
  GI50: 7.71 µM
  TGI: 15.7 µM
SF-268 CNS
  GI50: 4.84 µM
  TGI: 11.4 µM
SNB-19 CNS
  GI50: 7.26 µM
  TGI: 14.2 µM
CCRF-CEM leukemia
  GI50: 1.46 µM
  TGI: 7.88 µM
HCC-2998 colon
  GI50: 7.56 µM
  TGI: 15.4 µM
OVCAR-3 ovarian
  GI50: 0.775 µM
  TGI: 1.45 µM
COLO 205 colon
  GI50: 0.833 µM
  TGI: 1.66 µM
OVCAR-5 ovarian
  GI50: 1.38 µM
  TGI: 5.04 µM
HOP-92 NSCLC
  GI50: 0.786 µM
  TGI: 2.56 µM
TK-10 renal
  GI50: 0.862 µM
  TGI: 1.64 µM
MDA-MB-435
  GI50: 1.13 µM
  TGI: 2.73 µM
EKVX NSCLC
  GI50: 3.19 µM
  TGI: 10.3 µM
RPMI-8226 leukemia
  GI50: 1.75 µM
  TGI: 6.88 µM
U251 CNS
  GI50: 7.53 µM
  TGI: 14.3 µM
CAKI-1 renal
  GI50: 0.886 µM
  TGI: 1.95 µM
NCI-H522 lung
  GI50: 0.742 µM
  TGI: 1.68 µM
PC-3 prostate
  GI50: 0.251 µM
  TGI: 7.32 µM
BT-549 breast
  GI50: 1.84 µM
  TGI: 7.93 µM
SN12C renal
  GI50: 0.958 µM
  TGI: 2.12 µM
MOLT-4 leukemia
  GI50: 0.947 µM
  TGI: 3.43 µM
SK-MEL-5 melanoma
  GI50: 6.53 µM
  TGI: 13.3 µM
K-562 leukemia
  GI50: 1.02 µM
  TGI: 6.01 µM
OVCAR-4 ovarian
  GI50: 0.843 µM
  TGI: 1.77 µM
HCT-116 colon
  GI50: 0.793 µM
  TGI: 1.6 µM
NCI-H460 lung
  GI50: 7.77 µM
  TGI: 17.2 µM
HS 578T breast
  GI50: 5.75 µM
  TGI: 17.7 µM
MALME-3M melanoma
  GI50: 0.836 µM
  TGI: 1.69 µM
UACC-257 melanoma
  GI50: 4.04 µM
  TGI: 11.7 µM
ACHN renal
  GI50: 0.861 µM
  TGI: 1.58 µM
SK-OV-3 ovarian
  GI50: 7.96 µM
  TGI: 14.8 µM
OVCAR-8 ovarian
  GI50: 1.16 µM
  TGI: 2.72 µM
NCI-H23 lung
  GI50: 4.56 µM
  TGI: 12.9 µM
M14 melanoma
  GI50: 0.893 µM
  TGI: 1.92 µM
MDA-MB-231 breast
  GI50: 0.906 µM
  TGI: 1.8 µM
IGROV1 ovarian
  GI50: 0.922 µM
  TGI: 1.97 µM
SF-539 CNS
  GI50: 2.57 µM
  TGI: 8.75 µM
